We go through 11 molecules from ChEMBL document CHEMBL5108052, “Histone Deacetylase and Enhancer of Zeste Homologue 2 Dual Inhibitors Presenting a Synergistic Effect for the Treatment of Hematological Malignancies” (J Med Chem, 2022).

The subject of data set [1] is MDA-MB-231. To be noted: time 72 hrs.
For data set [2], the system named is HCT-116. Nature of the data set: cells. Particulars: Homo sapiens, HCT-116, 72 h.
Data set [3] has as its system MDA-MB-231. Briefly: cells. To be noted: Homo sapiens, MDA-MB-231, 72 h.
For data set [4], the system named is MV4-11. Nature of the data set: animal or person. The class given is functional, Homo sapiens. To be noted: Mus musculus, MV4-11, 480 h, route ip, time 20 day, read-out: TGI.
Data set [5] relates to SU-DHL10. Briefly: cells. To be noted: Homo sapiens, SU-DHL10, 72 h.
Data set [6] deals with SU-DHL10. Particulars: time 72 hrs.
For data set [7], the system named is MV4-11. Particulars: time 72 hrs.
The species entered for data set [8] is Homo sapiens. Particulars: time 90.0 sec.
Data set [9] has as its system HL-60. Nature of the data set: cells. To be noted: Homo sapiens, HL-60, 72 h.
Data set [10] relates to MV4-11. Briefly: cells. To be noted: Homo sapiens, MV4-11, 72 h.
Data set [11] relates to HL-60. To be noted: time 72 hrs.
Data set [12] can be described thus: Binding affinity to recombinant PRC2 complex (unknown origin) incubated for 90 seconds by surface plasmon resonance assay. Details: species or system Homo sapiens. On the technique in general: In SPR one partner is held on a chip, and binding of the other changes the refractive index at the surface.
For data set [13], the system named is HCT-116. Particulars: time 72 hrs.
For data set [14], the target named is T1, Protein deacetylase HDAC6 (Homo sapiens, UniProt Q9UBN7).
T1 sequence (Q9UBN7 whole entry): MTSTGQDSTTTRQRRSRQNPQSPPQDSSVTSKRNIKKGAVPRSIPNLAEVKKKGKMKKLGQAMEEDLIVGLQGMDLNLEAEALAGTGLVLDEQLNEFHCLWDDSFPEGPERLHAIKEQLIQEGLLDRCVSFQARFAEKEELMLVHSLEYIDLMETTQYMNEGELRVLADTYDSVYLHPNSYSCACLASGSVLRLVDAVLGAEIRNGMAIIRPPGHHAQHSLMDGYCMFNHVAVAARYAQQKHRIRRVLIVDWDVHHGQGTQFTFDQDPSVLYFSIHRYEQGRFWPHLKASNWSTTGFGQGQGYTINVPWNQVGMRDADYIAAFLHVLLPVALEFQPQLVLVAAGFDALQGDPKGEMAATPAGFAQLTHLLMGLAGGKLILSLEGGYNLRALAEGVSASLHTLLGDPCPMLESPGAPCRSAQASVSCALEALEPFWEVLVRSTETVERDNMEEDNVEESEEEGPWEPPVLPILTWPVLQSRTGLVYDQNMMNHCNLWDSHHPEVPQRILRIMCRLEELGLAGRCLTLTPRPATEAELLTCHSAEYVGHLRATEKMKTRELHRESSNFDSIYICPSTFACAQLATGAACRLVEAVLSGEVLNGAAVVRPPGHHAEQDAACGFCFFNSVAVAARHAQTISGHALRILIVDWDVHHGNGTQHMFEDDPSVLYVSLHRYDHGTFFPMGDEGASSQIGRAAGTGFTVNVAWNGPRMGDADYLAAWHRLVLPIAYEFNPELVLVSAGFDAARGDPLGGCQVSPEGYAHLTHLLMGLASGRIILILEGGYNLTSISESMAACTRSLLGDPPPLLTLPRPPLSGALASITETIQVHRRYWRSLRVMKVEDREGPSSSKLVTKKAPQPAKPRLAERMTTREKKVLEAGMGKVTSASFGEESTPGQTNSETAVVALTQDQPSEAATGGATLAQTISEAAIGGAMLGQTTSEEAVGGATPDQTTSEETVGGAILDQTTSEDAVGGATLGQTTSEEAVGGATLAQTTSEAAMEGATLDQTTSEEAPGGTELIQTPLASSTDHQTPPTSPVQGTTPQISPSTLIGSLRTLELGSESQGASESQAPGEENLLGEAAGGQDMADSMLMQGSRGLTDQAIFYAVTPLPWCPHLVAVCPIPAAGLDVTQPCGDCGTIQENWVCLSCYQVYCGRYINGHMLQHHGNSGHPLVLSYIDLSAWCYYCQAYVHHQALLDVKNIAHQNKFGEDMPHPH
Briefly: Inhibition of HDAC6 (unknown origin) preincubated for 5 mins followed by substrate addition and measured after 30 mins by multimode microplate reader analysis.

A short description of data set [15]: Binding affinity to recombinant PRC2 complex (unknown origin) assessed as dissociation rate constant incubated for 90 seconds by surface plasmon resonance assay. Also noted: species or system Homo sapiens.
Data set [16] addresses Histone deacetylase 1 (Homo sapiens, UniProt Q13547). Briefly: Inhibition of HDAC1 (unknown origin) preincubated for 5 mins followed by substrate addition and measured after 30 mins by multimode microplate reader analysis.
Data set [17] can be described thus: Metabolic stability in human liver microsomes assessed as half life measured after 5 mins in presence of NADPH and UDPGA by LC-MS/MS analysis. The data set is classed as ADME, Microsome. (In general: Microsomes from liver hold many membrane-bound enzymes, among them those of drug oxidation.)

A value given as a limit tells only on which side of the number the result lay.

Sequence of Histone deacetylase 1 (Q13547 whole entry): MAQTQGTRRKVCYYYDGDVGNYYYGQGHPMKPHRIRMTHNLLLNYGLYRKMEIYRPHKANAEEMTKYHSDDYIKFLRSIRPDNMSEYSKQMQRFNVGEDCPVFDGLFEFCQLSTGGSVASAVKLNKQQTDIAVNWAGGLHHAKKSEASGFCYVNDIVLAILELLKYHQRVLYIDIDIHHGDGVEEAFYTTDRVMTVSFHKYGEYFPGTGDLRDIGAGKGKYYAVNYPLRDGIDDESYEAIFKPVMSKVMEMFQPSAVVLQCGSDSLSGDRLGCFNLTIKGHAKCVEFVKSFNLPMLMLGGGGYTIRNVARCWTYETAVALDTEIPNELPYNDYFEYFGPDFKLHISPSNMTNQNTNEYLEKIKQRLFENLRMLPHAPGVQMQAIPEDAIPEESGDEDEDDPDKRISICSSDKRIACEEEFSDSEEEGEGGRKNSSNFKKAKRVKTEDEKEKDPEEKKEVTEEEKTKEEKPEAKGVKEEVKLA

Broadly, the IC50 is the concentration that inhibits the measured activity by half. Usually Kd stands for a measure of binding affinity in units of concentration. Consider `CC[C@@H](C)n1cc(C)c2c(C(=O)NCc3c(C)cc(C)[nH]c3=O)cc(-c3ccc(N4CCNCC4)nc3)cc21`, for which the CI is 1.2 in data set [1]; 0.8 in data set [6]; 0.38 in data set [7]; 0.65 in data set [11]; 0.91 in [13]. Moreover, the IC50 stood at 8.86 µM in [2]; 15.2 µM in data set [3]; 7.22 µM in data set [5]; 12 µM in [9]; 5.15 µM in data set [10]. Moreover, the inhibition in vivo at 100 mg/kg in [4] came to 52.7%. The Ka in [8] was 2.52 10^4/M/s. Besides, the Kd in data set [12] turned out to be 0.073 µM.
Broadly, the koff is the rate constant with which the complex falls apart. Regarding `Cc1cc(C)c(CNC(=O)c2cc(-c3ccc(N4CCN(C(=O)OC(C)(C)C)CC4)nc3)cc(NCCCCCCCC(=O)NO)c2C)c(=O)[nH]1`, the IC50 is 1.95 µM in data set [14]; 5.11 µM in [2]; 6.83 µM in data set [3]; 1.52 µM in data set [5]; 2.05 µM in [9]; 4.75 µM in data set [10]. Further, in [16] (time 35.0 min), the 50% inhibitory concentration (IC50) worked out at 2.05 µM. Besides, the koff in data set [15] was found to be 0.099 s⁻¹. Besides, the dissociation constant Kd in data set [12] was found to be 1.37 µM.
Regarding `Cc1cc(C)c(CNC(=O)c2cc(-c3ccc(N4CCN(C(=O)CCCCCCC(=O)NO)CC4)nc3)cc3c2cnn3C(C)C)c(=O)[nH]1`, the IC50 turned out to be 0.082 µM in data set [14]; 7.04 µM in data set [2]; 8.74 µM in data set [3]; 1.73 µM in data set [5]; 8.41 µM in data set [9]; 1.15 µM in data set [10]. This molecule also returned an IC50 in data set [16] of 0.94 µM. In addition, in data set [15], the koff was 0.023 s⁻¹. Also, the Kd in data set [12] was determined as 0.084 µM.
For the molecule `Cc1cc(C)c(CNC(=O)c2cc(-c3ccc(N4CCN(C(C)C)CC4)nc3)cc3c2cnn3C(C)C)c(=O)[nH]1`, the CI in [1] is listed as 1.6; in data set [6], 0.78; in [7] it was 0.43; in data set [11] it was 0.77; in data set [13], 0.89. The IC50 in [2] was > 20 µM; in data set [3], > 20 µM; in data set [5] it was > 20 µM; in data set [9] it was > 20 µM; in data set [10], 11.1 µM. For the same molecule, the Kd in data set [12] is 0.021 µM.
One may read the half-life as the time needed for the level to fall by half in the phase considered. Take `Cc1cc(C)c(CNC(=O)c2cc(-c3ccc(N4CCN(c5ncc(C(=O)Nc6ccccc6N)cn5)CC4)nc3)cc3c2cnn3C(C)C)c(=O)[nH]1`: the half-life in data set [17] turned out to be 17.7 min.
Consider `CCN(c1cc(-c2ccc(N3CCN(CCCCCCCCC(=O)NO)CC3)nc2)cc(C(=O)NCc2c(C)cc(C)[nH]c2=O)c1C)C1CCOCC1`, for which the half-inhibitory concentration (IC50) worked out at 1.9 µM in data set [14]; 4.11 µM in [2]; 5.08 µM in data set [3]; 1.87 µM in data set [5]; 1.67 µM in data set [9]; 1.53 µM in data set [10]. In addition, half-maximal inhibition in data set [16] (IC50) required 4.02 µM. The koff in data set [15] is 0.045 s⁻¹. The Kd in [12] amounted to 0.44 µM.
For the molecule `Cc1cc(C)c(CNC(=O)c2cc(-c3ccc(N4CCN(C(=O)OC(C)(C)C)CC4)nc3)cc(NCCCCCCC(=O)NO)c2C)c(=O)[nH]1`, the IC50 in [14] came out at 2.01 µM; in [2] it was 13.4 µM; in data set [3] it was 15.4 µM; in data set [5], 4.04 µM; in [9] it was 18.3 µM; in [10], 3.12 µM. For the same molecule, inhibition in data set [16] (time 35.0 min) was half-maximal at 1.89 µM (IC50). In addition, in [15], the off-rate (koff) came out at 0.13 s⁻¹. The Kd in data set [12] was 7.7 µM.
`C=C(CCCCCNc1cc(-c2ccc(N3CCN(C(=O)OC(C)(C)C)CC3)nc2)cc(C(=O)NCc2c(C)cc(C)[nH]c2=O)c1C)NO`: the IC50 was 1.23 µM in data set [14]; > 20 µM in data set [2]; > 20 µM in data set [3]; 12.9 µM in data set [5]; 17.8 µM in data set [9]; 17.7 µM in [10]. Further, the IC50 in [16] (time 35.0 min) was 5.82 µM. The koff in data set [15] was 0.16 s⁻¹. Besides, the Kd in data set [12] was 0.28 µM.
For the molecule `CC[C@@H](C)n1cc(C)c2c(C(=O)NCc3c(C)cc(C)[nH]c3=O)cc(-c3ccc(N4CCN(CCCCCCCCC(=O)NO)CC4)nc3)cc21`, the half-inhibitory concentration (IC50) in data set [14] came to 2.81 µM; in data set [2], 3.74 µM; in [3], 5.33 µM; in [5], 2.02 µM; in data set [9], 0.86 µM; in [10], 0.74 µM. The IC50 in data set [16] is > 10 µM. Also, in data set [15], the koff was 0.0078 s⁻¹. Besides, the Kd in data set [12] is 0.075 µM.
Regarding `Cc1cc(C)c(CNC(=O)c2cc(-c3ccc(N4CCN(C(=O)OC(C)(C)C)CC4)nc3)cc(NCCCCC(=O)NO)c2C)c(=O)[nH]1`, the IC50 was > 10 µM in data set [14]; > 20 µM in data set [2]; > 20 µM in [3]; 12.1 µM in data set [5]; 14.2 µM in data set [9]; 6.18 µM in [10]. This molecule also yielded an IC50 in data set [16] (time 35.0 min) of 2.84 µM. For the same molecule, the koff in [15] worked out at 0.049 s⁻¹. The Kd in [12] was found to be 0.24 µM.
`CCN(c1cc(-c2ccc(N3CCN(c4ncc(C(=O)NO)cn4)CC3)nc2)cc(C(=O)NCc2c(C)cc(C)[nH]c2=O)c1C)C1CCOCC1`: the 50% inhibitory concentration (IC50) in data set [14] was 2.58 µM; in [2] it was 6.54 µM; in [3], 7.82 µM; in data set [5] it was 0.82 µM; in data set [9] it was 1.88 µM; in data set [10] it was 0.48 µM. Further, in data set [16], the IC50 turned out to be 0.54 µM. Besides, in [15], the koff stood at 0.025 s⁻¹. Further, the Kd in [12] is 0.29 µM.
